Marks after values point to notes of the source that are not given here.
How the values were obtained:
Assay type in all cases: in vivo, rat
[1] = Weekly food intake of SHR rats
Method: (§1) 2.1 Grouping and administration of animals: 112 SHR rats (the female and male SHR rats are half and half, and the female rats are not pregnant) with the body weight of 200-250 g are taken, the rats are enabled to adapt to a laboratory for a period of 5 d, blood pressure is measured once at a day to enable the rats to adapt to the environment and detect stimulation. Then, weighing and numbering are carried out, and the SHR rats are equally divided into 14 groups randomly (each group comprises 8 rats), i.e., an SHR rat model control group, a positive control group (captopril, 27 mg/kg), a BZ large-dose group (120 mg/kg/d), a BZ small-dose group (60 mg/kg/d), a BA large-dose group (120 mg/kg/d), a BA small-dose group (60 mg/kg/d), a BL large-dose group (120 mg/kg/d), a BL small-dose group (60 mg/kg/d), a BM large-dose group (120 mg/kg/d), a BM small-dose group (60 mg/kg/d), a BD large-dose group (120 mg/kg/d), a BD small-dose group (60 mg/kg/d), a GB large-dose group (120 mg/kg/d) and a GB small-dose group (60 mg/kg/d). In addition, 8 healthy Wistar rats are taken as a normal control group. Intragastric administration is performed on the rats of each drug group separately according to the above-mentioned doses by 1 mL/100 g body weight, intragastric administration is performed on the rats of the normal control group and the rats of the SHR rat model control group with an equal volume of distilled water, and administration is performed continuously for 8 weeks.
(§2) 2.2 General state: during observation, conditions such as mind, water drinking, food intake, bowel movement, hair color, body weight and range of motion of rats are observed. Irritable degrees of the rats are divided into III levels: a level I means that the rats are free of obvious response when necks of the rats are seized; a level II means that the rats scream and startle when the necks of the rats are seized; and a level III means that the rats bite or rats of same cages frequently fight when the necks of the rats are seized.
(§3) 3.1 Influence on general state of spontaneously hypertensive rats: the rats of the normal control group are normal in food intake, drinking and motion conditions, sensitive in response, healthy and glossy in hair color, good in mental state and free of any unusual response; the rats of the SHR model group gradually present that back hair is fluffy, clustered and dim, the appetite is reduced, the body weight is reduced, the mind is dispirited and irritable, and the rats are prone to the behaviors of intense resisting, attacking and so on during administration and blood pressure detection, and irritable degrees are mostly changed to a level II and a level III from a level I; and after single administration of ginkgolide B and derivatives thereof, behavioral general state observations of rats of each group are free of obvious difference from those of the model control group.

[2] = Weekly body weight of SHR rats
Method: as §1, §2, §3

[3] = system: spontaneously hypertensive rats (SHR); test: Caudal artery systolic pressure of spontaneously hypertensive rats, 8 weeks of continuous medication; conditions: x ± s, n = 8
Method: as §1
(§4) 2.3 Blood pressure measuring: caudal artery systolic pressure of rats is measured with a Bp-6 noninvasive blood pressure measuring system. Under the condition that the rats are calm, the systolic pressure is continuously measured for 3 times, and the average value of the measured systolic pressure is taken as a pressure measuring result. Observation indexes: (1) single-administration pressure lowering effect: blood pressure of the rats is measured before administration and blood pressure conditions are measured 30 min, 60 min, 90 min and 120 min after first administration; and (2) continuous-administration pressure lowering condition: blood pressure is separately measured 30 min after administration at 1 d, 7 d, 13 d, 19 d, 25 d, 35 d, 49 d and 56 d, the blood pressure is repeatedly measured for 3 times at a day, and the average value of obtained values is taken as a final blood pressure value.

[4] = system: spontaneously hypertensive rats (SHR); test: Caudal artery systolic pressure of spontaneously hypertensive rats, single administration; conditions: x ± s, n = 8
Method: as §1, §4

[5] = 60 mg/kg/d intragastric, week 0
[6] = 60 mg/kg/d intragastric, week 1
[7] = 60 mg/kg/d intragastric, week 2
[8] = 60 mg/kg/d intragastric, week 3
[9] = 60 mg/kg/d intragastric, week 4
[10] = 60 mg/kg/d intragastric, week 5
[11] = 60 mg/kg/d intragastric, week 6
[12] = 60 mg/kg/d intragastric, week 7
[13] = 60 mg/kg/d intragastric, week 8
[14] = 120 mg/kg/d intragastric, week 0
[15] = 120 mg/kg/d intragastric, week 1
[16] = 120 mg/kg/d intragastric, week 2
[17] = 120 mg/kg/d intragastric, week 3
[18] = 120 mg/kg/d intragastric, week 4
[19] = 120 mg/kg/d intragastric, week 5
[20] = 120 mg/kg/d intragastric, week 6
[21] = 120 mg/kg/d intragastric, week 7
[22] = 120 mg/kg/d intragastric, week 8

CC1C(=O)OC2C(O)C34C5CC(C(C)(C)C)C36C(OC(=O)C6O)OC4(C(=O)O5)C12O (stereo not shown) [GB, ginkgolide B]
Average dairy food intake [1, 5]: 18.6 g/day | Average dairy food intake [1, 6]: 20.1^▴ g/d | Average dairy food intake [1, 7]: 18.9^▴ g/d | Average dairy food intake [1, 8]: 17.7 g/day | Average dairy food intake [1, 9]: 18.6^▴ g/d | Average dairy food intake [1, 10]: 21.7^▴▴ g/d | Average dairy food intake [1, 11]: 23.5^▴▴ g/d | Average dairy food intake [1, 12]: 24.2^▴▴ g/d | Average dairy food intake [1, 13]: 25.4^▴▴ g/d | Average dairy food intake [1, 14]: 18.3 g/day | Average dairy food intake [1, 15]: 20.6^▴▴ g/d | Average dairy food intake [1, 16]: 19.5^▴ g/d | Average dairy food intake [1, 17]: 20.6^▴▴ g/d | Average dairy food intake [1, 18]: 21.4^▴▴ g/d | Average dairy food intake [1, 19]: 22.8^▴▴ g/d | Average dairy food intake [1, 20]: 24.6^▴▴ g/d | Average dairy food intake [1, 21]: 26.8^▴▴ g/d | Average dairy food intake [1, 22]: 28.2^▴▴ g/d | Body weight [2, 5]: 230.8 g | Body weight [2, 6]: 235.6 g | Body weight [2, 7]: 243.1^▴ g | Body weight [2, 8]: 250.2 g | Body weight [2, 9]: 258.9^▴ g | Body weight [2, 10]: 262.4 g | Body weight [2, 11]: 268.7^▴ g | Body weight [2, 12]: 280.6^▴▴ g | Body weight [2, 13]: 290.1^▴▴ g | Body weight [2, 14]: 231.0 g | Body weight [2, 15]: 250.3^▴▴ g | Body weight [2, 16]: 258.7^▴▴ g | Body weight [2, 17]: 263.4^▴▴ g | Body weight [2, 18]: 270.6^▴▴ g | Body weight [2, 19]: 281.5^▴▴ g | Body weight [2, 20]: 290.6^▴▴ g | Body weight [2, 21]: 306.7^▴▴ g | Body weight [2, 22]: 321.2^▴▴ g | Systolic pressure ([3]; 60 mg/kg/d intragastric continuous, 1 d, 30 min after administration): 155.67 ± 12.36 mmHg | Systolic pressure ([3]; 60 mg/kg/d intragastric continuous, 7 d, 30 min after administration): 153.46 ± 10.74 mmHg | Systolic pressure ([3]; 60 mg/kg/d intragastric continuous, 13 d, 30 min after administration): 156.25 ± 10.84 mmHg | Systolic pressure ([3]; 60 mg/kg/d intragastric continuous, 19 d, 30 min after administration): 150.68 ± 9.78 mmHg | Systolic pressure ([3]; 60 mg/kg/d intragastric continuous, 25 d, 30 min after administration): 155.65 ± 10.57 mmHg | Systolic pressure ([3]; 60 mg/kg/d intragastric continuous, 35 d, 30 min after administration): 154.25 ± 10.74 mmHg | Systolic pressure ([3]; 60 mg/kg/d intragastric continuous, 49 d, 30 min after administration): 150.56 ± 10.42 mmHg | Systolic pressure ([3]; 60 mg/kg/d intragastric continuous, 56 d, 30 min after administration): 153.85 ± 9.24 mmHg | Systolic pressure ([3]; 60 mg/kg/d intragastric continuous, before administration): 168.41 ± 12.30 mmHg | Systolic pressure ([3]; 120 mg/kg/d intragastric continuous, 1 d, 30 min after administration): 150.63 ± 10.25 mmHg | Systolic pressure ([3]; 120 mg/kg/d intragastric continuous, 7 d, 30 min after administration): 148.54 ± 9.27 mmHg | Systolic pressure ([3]; 120 mg/kg/d intragastric continuous, 13 d, 30 min after administration): 141.74 ± 8.26 mmHg | Systolic pressure ([3]; 120 mg/kg/d intragastric continuous, 19 d, 30 min after administration): 140.95 ± 12.04 mmHg | Systolic pressure ([3]; 120 mg/kg/d intragastric continuous, 25 d, 30 min after administration): 147.46 ± 9.85 mmHg | Systolic pressure ([3]; 120 mg/kg/d intragastric continuous, 35 d, 30 min after administration): 142.33 ± 10.38 mmHg | Systolic pressure ([3]; 120 mg/kg/d intragastric continuous, 49 d, 30 min after administration): 138.79 ± 11.58 mmHg | Systolic pressure ([3]; 120 mg/kg/d intragastric continuous, 56 d, 30 min after administration): 135.28 ± 7.48 mmHg | Systolic pressure ([3]; 120 mg/kg/d intragastric continuous, before administration): 167.49 ± 13.09 mmHg | Systolic pressure ([4]; 60 mg/kg intragastric single administration, 30 min): 160.42 ± 9.56 mmHg | Systolic pressure ([4]; 60 mg/kg intragastric single administration, 60 min): 153.15 ± 12.51 mmHg | Systolic pressure ([4]; 60 mg/kg intragastric single administration, 90 min): 155.16 ± 11.26 mmHg | Systolic pressure ([4]; 60 mg/kg intragastric single administration, 120 min): 159.17 ± 11.63 mmHg | Systolic pressure ([4]; 60 mg/kg intragastric single administration, before administration): 168.41 ± 12.30 mmHg | Systolic pressure ([4]; 120 mg/kg intragastric single administration, 30 min): 151.46 ± 16.27 mmHg | Systolic pressure ([4]; 120 mg/kg intragastric single administration, 60 min): 157.54 ± 17.95 mmHg | Systolic pressure ([4]; 120 mg/kg intragastric single administration, 90 min): 160.26 ± 16.54 mmHg | Systolic pressure ([4]; 120 mg/kg intragastric single administration, 120 min): 152.21 ± 18.27 mmHg | Systolic pressure ([4]; 120 mg/kg intragastric single administration, before administration): 167.49 ± 13.09 mmHg

Source: patent US10875874B2, “Ginkgolide B derivative and preparation method and use thereof” (Chengdu Baiyu Ginkgolide Pharmaceuticals Co., Ltd., priority 2015, dated 2020)
